Test system: sporozoites of P. falciparum
Assay: Inhibition of penetration of sporozoites into human hepatocytes
Format: cell-based
Settings: sera of immunized C57BL/6 mice; 1:5 solution of sample; human hepatoma cells
Procedure: Human hepatoma cells were seeded at a concentration of 10^5 cells/chamber in Lab.-Tek plastic chambers (Miles) and cultivated for 24-48 hours
Then, to each chamber 25 μl was charged of a suspension containing 5-10^4 sporozoites of P. falciparum and 25 μl of a 1:5 solution of the sample under test.
The sporozoites were obtained from salivary glands of Anopheles stephensi infected with P. falciparum.
Two and six days later, the number of infected hepatocytes was determined by immunofluorescence by using monoclonal anti-P. falciparum CS protein antibodies.

## (Asn--Ala--Asn--Pro)40 [(NANP)40]
  inhibition of the penetration of the sporozoites of P. falciparum into the hepatic cells: < 86%
